# Reference: article PMC11702208 (RSC Advances, 2025)
# Experiments:
# [1] = system: MDA-MB-231/ATCC; assay: NCI cytotoxicity screen; type: cell-based, human; conditions: 10.0 μM one dose; MDA-MB-231/ATCC
# [2] = system: NCI-H23; assay: NCI cytotoxicity screen; type: cell-based, human; conditions: 10.0 μM one dose
# [3] = system: NCI-H226; assay: NCI cytotoxicity screen; type: cell-based, human; conditions: 10.0 μM one dose
# [4] = system: PC-3; assay: NCI cytotoxicity screen; type: cell-based, human; conditions: 10.0 μM one dose
# [5] = system: SR; assay: NCI cytotoxicity screen; type: cell-based, human; conditions: 10.0 μM one dose
# [6] = system: MOLT-4; assay: NCI cytotoxicity screen; type: cell-based, human; conditions: 10.0 μM one dose
# [7] = system: RPMI-8226; assay: NCI cytotoxicity screen; type: cell-based, human; conditions: 10.0 μM one dose
# [8] = system: DU-145; assay: NCI cytotoxicity screen; type: cell-based, human; conditions: 10.0 μM one dose
# [9] = system: SF-295; assay: NCI cytotoxicity screen; type: cell-based, human; conditions: 10.0 μM one dose
# [10] = system: HCT-116; assay: NCI cytotoxicity screen; type: cell-based, human; conditions: 10.0 μM one dose
# [11] = system: HT29; assay: NCI cytotoxicity screen; type: cell-based, human; conditions: 10.0 μM one dose; HT-29
# [12] = system: Ovarian cancer subpanel tumor cell lines; assay: NCI cytotoxicity screen, subpanel; type: cell-based, human; conditions: 10 μM; range over ovarian cancer cell lines
# [13] = system: HCT-15; assay: NCI cytotoxicity screen; type: cell-based, human; conditions: 10.0 μM one dose
# [14] = system: LOX IMVI; assay: NCI cytotoxicity screen; type: cell-based, human; conditions: 10.0 μM one dose
# [15] = system: EKVX; assay: NCI cytotoxicity screen; type: cell-based, human; conditions: 10.0 μM one dose
# [16] = system: MDA-MB-468; assay: NCI cytotoxicity screen; type: cell-based, human; conditions: 10.0 μM one dose
# [17] = system: SF-539; assay: NCI cytotoxicity screen; type: cell-based, human; conditions: 10.0 μM one dose
# [18] = system: U251; assay: NCI cytotoxicity screen; type: cell-based, human; conditions: 10.0 μM one dose; U-251
# [19] = system: A498; assay: NCI cytotoxicity screen; type: cell-based, human; conditions: 10.0 μM one dose; A-498
# [20] = system: 59 cancer cell lines; assay: NCI cytotoxicity screen, full panel; type: cell-based, human; conditions: 10.0 μM one dose, 59 cell lines
# [21] = system: T-47D; assay: NCI cytotoxicity screen; type: cell-based, human; conditions: 10.0 μM one dose; T-47D
# [22] = system: OVCAR-3; assay: NCI cytotoxicity screen; type: cell-based, human; conditions: 10.0 μM one dose; OVCAR-3
# [23] = target: T1, COX-2 (Ovis aries, UniProt P79208); assay: Colorimetric COX; type: biochemical, ovine
# T1 sequence (P79208 17-603): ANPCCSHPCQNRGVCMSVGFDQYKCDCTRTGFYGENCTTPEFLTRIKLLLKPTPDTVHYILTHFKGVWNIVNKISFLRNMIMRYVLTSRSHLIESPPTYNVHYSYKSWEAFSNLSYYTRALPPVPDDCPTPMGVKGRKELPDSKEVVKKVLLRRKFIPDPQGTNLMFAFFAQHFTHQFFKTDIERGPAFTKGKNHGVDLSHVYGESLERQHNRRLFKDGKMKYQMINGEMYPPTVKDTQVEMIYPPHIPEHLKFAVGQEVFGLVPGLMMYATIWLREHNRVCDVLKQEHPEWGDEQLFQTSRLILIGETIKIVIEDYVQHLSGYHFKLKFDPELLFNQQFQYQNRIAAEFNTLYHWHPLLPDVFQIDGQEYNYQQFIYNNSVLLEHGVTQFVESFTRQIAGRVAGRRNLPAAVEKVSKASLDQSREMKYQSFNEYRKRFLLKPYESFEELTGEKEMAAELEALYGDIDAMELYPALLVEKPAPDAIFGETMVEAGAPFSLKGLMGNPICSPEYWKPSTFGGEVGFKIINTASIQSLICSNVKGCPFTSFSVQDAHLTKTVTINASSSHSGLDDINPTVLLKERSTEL
# [24] = system: SNB-75; assay: NCI cytotoxicity screen; type: cell-based, human; conditions: 10.0 μM one dose
# [25] = system: UO-31; assay: NCI cytotoxicity screen; type: cell-based, human; conditions: 10.0 μM one dose
# [26] = system: UACC-62; assay: NCI cytotoxicity screen; type: cell-based, human; conditions: 10.0 μM one dose
# [27] = system: CCRF-CEM; assay: NCI cytotoxicity screen; type: cell-based, human; conditions: 10.0 μM one dose
# [28] = system: SF-268; assay: NCI cytotoxicity screen; type: cell-based, human; conditions: 10.0 μM one dose
# [29] = system: HS 578T; assay: NCI cytotoxicity screen; type: cell-based, human; conditions: 10.0 μM one dose; HS-578T
# [30] = target: CDK9 (Homo sapiens, UniProt P50750); assay: biochemical; conditions: IC50 CDK9 inhibition
# [31] = system: K-562; conditions: 10.0 μM one dose
# [32] = system: A549/ATCC; assay: NCI cytotoxicity screen; type: cell-based, human; conditions: 10.0 μM one dose; A549/ATCC
# [33] = system: SNB-19; assay: NCI cytotoxicity screen; type: cell-based, human; conditions: 10.0 μM one dose
# [34] = system: RXF 393; assay: NCI cytotoxicity screen; type: cell-based, human; conditions: 10.0 μM one dose
# [35] = system: KM12; assay: NCI cytotoxicity screen; type: cell-based, human; conditions: 10.0 μM one dose; KM-12
# [36] = system: NCI-H522; assay: NCI cytotoxicity screen; type: cell-based, human; conditions: 10.0 μM one dose
# [37] = system: CAKI-1; assay: NCI cytotoxicity screen; type: cell-based, human; conditions: 10.0 μM one dose
# [38] = system: MDA-MB-435; assay: NCI cytotoxicity screen; type: cell-based, human; conditions: 10.0 μM one dose
# [39] = system: SK-MEL-5; assay: NCI cytotoxicity screen; type: cell-based, human; conditions: 10.0 μM one dose
# [40] = target: HER2 (Homo sapiens, UniProt P04626); assay: HER2 tyrosine kinase assay; type: biochemical; conditions: IC50 HER2 inhibition
# [41] = system: MCF7; assay: NCI cytotoxicity screen; type: cell-based, human; conditions: 10.0 μM one dose; MCF-7
# [42] = target: EGFR (Homo sapiens, UniProt P00533); assay: biochemical; conditions: IC50 EGFR inhibition
# EGFR, sequence (P00533 25-1210): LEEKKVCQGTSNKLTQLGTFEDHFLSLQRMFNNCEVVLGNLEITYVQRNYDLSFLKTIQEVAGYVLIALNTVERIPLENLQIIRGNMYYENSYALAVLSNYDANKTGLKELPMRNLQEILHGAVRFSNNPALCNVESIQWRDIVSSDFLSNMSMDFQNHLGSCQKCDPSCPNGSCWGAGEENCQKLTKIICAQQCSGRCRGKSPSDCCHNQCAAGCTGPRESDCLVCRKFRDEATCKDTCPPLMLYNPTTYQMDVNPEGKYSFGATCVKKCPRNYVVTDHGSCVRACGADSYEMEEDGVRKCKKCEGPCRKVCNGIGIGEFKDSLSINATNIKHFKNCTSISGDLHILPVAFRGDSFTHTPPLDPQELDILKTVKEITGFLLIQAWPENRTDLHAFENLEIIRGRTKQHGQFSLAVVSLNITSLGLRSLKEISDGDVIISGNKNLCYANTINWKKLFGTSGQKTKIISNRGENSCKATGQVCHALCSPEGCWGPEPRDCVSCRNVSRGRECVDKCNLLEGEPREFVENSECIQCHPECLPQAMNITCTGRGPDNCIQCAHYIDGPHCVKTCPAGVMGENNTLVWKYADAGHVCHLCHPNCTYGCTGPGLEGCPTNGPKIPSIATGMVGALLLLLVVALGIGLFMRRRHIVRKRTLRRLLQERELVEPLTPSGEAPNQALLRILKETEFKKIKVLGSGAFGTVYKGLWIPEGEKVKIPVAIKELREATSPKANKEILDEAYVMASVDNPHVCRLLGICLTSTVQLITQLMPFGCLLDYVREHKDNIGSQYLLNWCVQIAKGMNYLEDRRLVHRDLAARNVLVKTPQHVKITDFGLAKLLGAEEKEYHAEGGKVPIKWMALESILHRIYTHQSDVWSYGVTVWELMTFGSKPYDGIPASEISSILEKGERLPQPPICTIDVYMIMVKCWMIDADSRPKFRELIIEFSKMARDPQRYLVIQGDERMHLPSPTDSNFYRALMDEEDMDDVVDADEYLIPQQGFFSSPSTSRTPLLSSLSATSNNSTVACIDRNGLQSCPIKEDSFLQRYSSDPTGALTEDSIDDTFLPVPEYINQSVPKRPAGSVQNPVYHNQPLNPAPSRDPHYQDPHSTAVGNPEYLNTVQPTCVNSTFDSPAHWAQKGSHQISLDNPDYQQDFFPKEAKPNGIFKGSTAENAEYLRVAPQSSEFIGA
# HER2, sequence (P04626 23-1255): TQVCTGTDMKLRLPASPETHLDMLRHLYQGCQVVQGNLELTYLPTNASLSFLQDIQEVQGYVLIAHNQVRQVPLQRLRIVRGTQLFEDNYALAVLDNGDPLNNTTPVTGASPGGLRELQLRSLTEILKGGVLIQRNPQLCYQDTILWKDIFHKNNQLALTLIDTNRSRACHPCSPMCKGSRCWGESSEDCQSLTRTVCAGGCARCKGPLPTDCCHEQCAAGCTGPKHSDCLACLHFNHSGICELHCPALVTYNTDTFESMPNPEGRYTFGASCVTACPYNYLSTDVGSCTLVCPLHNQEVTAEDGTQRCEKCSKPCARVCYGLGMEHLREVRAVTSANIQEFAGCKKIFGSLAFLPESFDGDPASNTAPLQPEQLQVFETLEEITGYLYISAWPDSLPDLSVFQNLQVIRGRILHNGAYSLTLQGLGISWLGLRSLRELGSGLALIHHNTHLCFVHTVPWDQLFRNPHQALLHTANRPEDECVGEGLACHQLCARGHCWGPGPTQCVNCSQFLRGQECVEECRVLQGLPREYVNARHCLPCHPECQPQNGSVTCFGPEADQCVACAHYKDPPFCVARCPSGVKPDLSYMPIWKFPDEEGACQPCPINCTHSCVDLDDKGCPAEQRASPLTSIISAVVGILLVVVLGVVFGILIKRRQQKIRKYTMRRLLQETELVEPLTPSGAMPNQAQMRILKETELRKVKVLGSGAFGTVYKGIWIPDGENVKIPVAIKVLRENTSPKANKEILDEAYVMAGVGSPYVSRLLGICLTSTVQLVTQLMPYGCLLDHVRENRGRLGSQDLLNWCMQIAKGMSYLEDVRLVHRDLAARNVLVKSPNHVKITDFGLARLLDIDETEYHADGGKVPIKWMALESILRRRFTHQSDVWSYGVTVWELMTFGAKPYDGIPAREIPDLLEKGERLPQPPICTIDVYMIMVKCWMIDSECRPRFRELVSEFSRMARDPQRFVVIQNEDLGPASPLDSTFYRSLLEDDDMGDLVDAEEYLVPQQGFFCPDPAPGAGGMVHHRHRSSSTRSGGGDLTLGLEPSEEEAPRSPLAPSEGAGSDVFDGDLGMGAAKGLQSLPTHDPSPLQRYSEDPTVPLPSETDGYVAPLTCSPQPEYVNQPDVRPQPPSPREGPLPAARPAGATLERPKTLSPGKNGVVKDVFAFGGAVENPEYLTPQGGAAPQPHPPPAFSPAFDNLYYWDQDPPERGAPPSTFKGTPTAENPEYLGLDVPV
# CDK9, sequence (P50750 whole entry): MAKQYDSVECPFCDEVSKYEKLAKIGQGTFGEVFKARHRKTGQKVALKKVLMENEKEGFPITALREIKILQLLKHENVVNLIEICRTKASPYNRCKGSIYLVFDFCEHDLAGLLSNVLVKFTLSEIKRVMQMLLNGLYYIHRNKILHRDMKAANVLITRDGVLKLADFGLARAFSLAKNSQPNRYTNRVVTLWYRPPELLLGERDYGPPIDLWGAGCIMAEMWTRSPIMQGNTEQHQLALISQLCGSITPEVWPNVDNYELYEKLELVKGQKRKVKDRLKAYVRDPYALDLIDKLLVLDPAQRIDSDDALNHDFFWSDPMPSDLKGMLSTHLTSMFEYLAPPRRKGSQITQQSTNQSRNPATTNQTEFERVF
# CDK9, sequence (O60563 whole entry partner): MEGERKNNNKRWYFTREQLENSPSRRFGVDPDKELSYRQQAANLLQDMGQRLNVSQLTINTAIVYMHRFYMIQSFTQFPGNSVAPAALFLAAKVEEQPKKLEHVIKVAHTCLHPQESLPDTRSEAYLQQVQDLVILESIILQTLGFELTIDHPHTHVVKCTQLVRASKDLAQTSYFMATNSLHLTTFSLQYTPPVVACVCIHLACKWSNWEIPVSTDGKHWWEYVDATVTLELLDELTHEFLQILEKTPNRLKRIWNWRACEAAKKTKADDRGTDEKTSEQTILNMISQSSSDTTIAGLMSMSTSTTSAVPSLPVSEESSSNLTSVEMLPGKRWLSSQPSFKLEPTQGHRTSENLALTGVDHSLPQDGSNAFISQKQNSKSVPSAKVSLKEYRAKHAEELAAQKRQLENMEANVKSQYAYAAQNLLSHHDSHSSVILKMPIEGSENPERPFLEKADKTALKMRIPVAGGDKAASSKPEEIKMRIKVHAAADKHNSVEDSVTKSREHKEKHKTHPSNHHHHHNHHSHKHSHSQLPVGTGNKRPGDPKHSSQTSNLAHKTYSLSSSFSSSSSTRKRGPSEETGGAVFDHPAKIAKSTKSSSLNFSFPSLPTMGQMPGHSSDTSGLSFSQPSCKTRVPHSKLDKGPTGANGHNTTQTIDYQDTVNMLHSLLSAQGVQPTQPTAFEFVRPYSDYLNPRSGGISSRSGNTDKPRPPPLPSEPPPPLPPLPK
smiles,measurement,setting,value
"Cc1ccc(NC(=O)c2ccc(CN3CCN(C)CC3)cc2)cc1Nc1nccc(-c2cccnc2)n1 [Imatinib, reference compound]",GI %,[1],11.2%
same,GI %,[2],17.1%
same,GI %,[3],10.6%
same,GI %,[4],10.6%
same,GI %,[5],14.6%
same,GI %,[6],18%
same,GI %,[7],12.6%
same,GI %,[8],14.4%
same,GI %,[9],15.1%
same,GI %,[10],18.6%
same,GI %,[11],47.1%
same,GI %,[12],< 10%
same,GI %,[13],11.5%
same,GI %,[14],11.6%
same,GI %,[15],15.7%
same,GI %,[16],29.1%
same,GI %,[17],24.5%
same,GI %,[18],10.6%
same,GI %,[19],13.7%
same,MG% (mean growth percent),[20],92.62%
same,MG% (mean growth percent),[20]; listed as imatinib,92.6%
same,GI %,[21],18.6%
"Cc1ccc(C=NNC(=O)CSc2nc3ccccc3c(=O)n2Cc2ccc(S(N)(=O)=O)cc2)cc1 [Compound 9, 4-((2-((2-(2-(4-Methylbenzylidene)hydrazineyl)-2-oxoethyl)thio)-4-oxoquinazolin-3(4H)-yl)methyl)benzenesulfonamide]",GI %,[22],21%
same,IC50,[23],15400 ± 320 nM
same,GI %,[1],11%
same,GI %,[24],29%
same,GI %,[25],20%
same,GI %,[26],22%
same,GI %,[27],13%
same,GI %,[3],16%
same,GI %,[4],11%
same,GI %,[5],51%
same,GI %,[6],14%
same,GI %,[28],22%
same,GI %,[29],12%
same,IC50,[30],316 ± 7.76 nM
same,GI %,[31],37%
same,GI %,[32],15%
same,GI %,[11],14%
same,GI %,[13],11%
same,GI %,[33],11%
same,GI %,[14],18%
same,GI %,[34],14%
same,GI %,[35],14%
same,GI %,[15],10%
same,GI %,[36],58%
same,GI %,[16],19%
same,GI %,[37],36%
same,MG% (mean growth percent),[20],88.5%
same,GI %,[38],54%
same,GI %,[39],26%
same,IC50,[40],229 nM
same,GI %,[41],41%
same,IC50,[42],378 ± 9.26 nM
same,GI %,[21],19%
